Measured values: publication PMC8306904, “Discovery of New Hits as Antitrypanosomal Agents by In Silico and In Vitro Assays Using Neolignan-Inspired Natural Products from Nectandra leucantha” (Molecules, 2021)
Like-named read-outs stand apart in the source and are kept apart here.

What was measured:
[1] = system: amastigote forms of T. cruzi; assay: Activity against amastigote forms of T. cruzi in infected macrophages; format: cell-based, Trypanosoma cruzi; settings: for SI: selectivity index (ratio CC50/IC50): CC50 against NCTC cells/IC50 against amastigotes
Experimental: To perform the experiments, peritoneal macrophages from BALB/c mice were infected with trypomastigotes forms of T. cruzi. The macrophages obtained from the peritoneal cavity of BALB/c mice were seeded on a 16-well chamber slide (NUNC plate, Merck; 1 × 10^5/well) and incubated for 24 h at 37 °C in a 5% CO2-humidified incubator. The trypomastigotes LLC-MK2 were counted and used to infect the macrophages (parasite:macrophage ratio = 10:1). After 2 h incubation at 37 °C in a 5% CO2-humidified incubator, free parasites were removed by 1× washing with the medium. […] Benznidazole was used as the standard drug. At the end of the assay, slides were fixed with MeOH, stained with Giemsa, and counted using light microscopy. The IC50 values were calculated as previously reported.

[2] = system: amastigote forms of T. cruzi; set-up: method as in PMID 28864277, PMID 31103897, PMID 33047947; settings: read-out: IC50, 50% inhibitory concentration against amastigote forms of T. cruzi; intracellular amastigotes; compounds 9–33 and 36–50; ref [8],[10],[26]; cited from earlier work
NCTC cells-clone L929 = system: NCTC cells-clone L929; set-up: method as in PMID 28864277, PMID 31103897, PMID 33047947; settings: read-out: CC50, 50% cytotoxic concentration in NCTC cells (ATCC, clone 929); compounds 9–33 and 36–50; ref [8],[10],[26]; cited from earlier work
[3] = Cytotoxicity against mammalian cells (MTT); format: cell-based; settings: mouse, NCTC clone L929 cells (murine conjunctive cells)
Experimental: The optical density was determined using FilterMax F5 (Molecular Devices) at 570 nm. We calculated the selectivity index (SI) values using the following equation: CC50 against NCTC cells/IC50 against amastigotes.

[4] = Trypanosoma cruzi, Macrophage, -log IC50 against amastigotes, Table 1 and Figure 7, read-out: pIC50 Experimental (converted)
[5] = Trypanosoma cruzi, Macrophage, Table S2, -log IC50, supplement numbering, read-out: pIC50 (converted)
[6] = Trypanosoma cruzi, Peritoneal macrophage, in Mus musculus, 48 h, read-out: IC50, 50% inhibitory concentration against amastigote forms of T. cruzi, intracellular amastigotes in BALB/c peritoneal macrophages, 48 h, 30 to […]

## C=CCc1cc(OC)c(OC)c(Oc2ccccc2OC)c1 [Compound 47]
[1]; [4]
  IC50: > 30 µM
[2]
  IC50: > 30 µM
NCTC cells-clone L929
  CC50: > 200 µM

## C=CCc1ccc(Oc2cc(CCC)cc(OC)c2O)c(OC)c1 [Compound 37]
[1]
  SI: selectivity index (ratio CC50/IC50): 1.4
[1]; [4]
  IC50: 10.5 µM
[2]
  IC50: 10.5 ± 8.3 µM
NCTC cells-clone L929
  CC50: 14.2 ± 0.1 µM

## C=CCc1ccc(Oc2cc(C(=O)C=C)cc(OC)c2O)c(OC)c1 [Compound 5, 4-hydroxy-5-methoxy-3-[3′-methoxy-1′-(8′-propenyl)phenoxy]-1-(7-oxo-8-propenyl)benzene]
[1]; [4]
  IC50: > 30 µM
[1]; [5]
  IC50: 10 µM
[1]; [6]
  IC50: > 30 µM
[3]
  CC50 at 48 h: > 200 µM

## C=CCc1ccc(Oc2cc(C(=O)C=C)cc(OC)c2OC)c(OC)c1 [Compound 6, 4,5-dimethoxy-3-[3′-methoxy-1′-(8′-propenyl)phenoxy]-1-(7-oxo-8-propenyl)benzene]
[1]
  SI: selectivity index (ratio CC50/IC50): >7.6
[1]; [4]
  IC50: 26.3 µM
[1]; [5]
  IC50: 30.2 µM
[1]; [6]
  IC50: 26.3 ± 1.3 µM
[3]
  CC50 at 48 h: > 200 µM

## C=CCc1ccc(Oc2cc(CCC)cc(OC)c2OCc2ccc(OC)cc2)c(OC)c1 [Compound 41]
[1]
  SI: selectivity index (ratio CC50/IC50): >14.9
[1]; [4]
  IC50: 13.5 µM
[2]
  IC50: 13.4 ± 5.4 µM
NCTC cells-clone L929
  CC50: > 200 µM

## C=CCc1ccc(Oc2cc(CC=C)cc(OC)c2OCc2ccc(OC)cc2)cc1 [Compound 46]
[1]
  SI: selectivity index (ratio CC50/IC50): >18.2
[1]; [4]
  IC50: 11.5 µM
[1]; [5]
  IC50: 11 µM
[2]
  IC50: 11 ± 2.3 µM
NCTC cells-clone L929
  CC50: > 200 µM

## C=CCc1ccc(Oc2cccc(OC)c2OC)c(OC)c1 [Compound 42]
[1]
  SI: selectivity index (ratio CC50/IC50): >7.8
[1]; [4]
  IC50: 25.7 µM
[2]
  IC50: 25.7 ± 12.2 µM
NCTC cells-clone L929
  CC50: > 200 µM

## CCCc1cc(OC)cc(Oc2ccc(CCC)cc2OC)c1 [Compound 35]
[1]
  SI: selectivity index (ratio CC50/IC50): >18.3
[1]; [4]
  IC50: 11 µM
[1]; [6]
  IC50: 10.9 ± 6.5 µM
[3]
  CC50 at 48 h: > 200 µM

## C=CCc1ccc(Oc2cc([C@@H](O)C=C)cc(OC)c2O)c(OC)c1 [Compound 3, 1-[(7S)-hydroxy-8-propenyl]-3-[3′-methoxy-1′-(8′-propenyl)-phenoxy]-4-hydroxy-5-methoxybenzene]
[1]; [4]
  IC50: > 30 µM
[1]; [6]
  IC50: > 30 µM
[3]
  CC50 at 48 h: > 200 µM

## C=CCc1ccc(Oc2cc([C@@H](O)C=C)cc(OC)c2OC)c(OC)c1 [Compound 4, 1-[(7S)-hydroxy-8-propenyl]-3-[3′-methoxy-1′-(8′-propenyl)-phenoxy]-4,5-dimethoxybenzene]
[1]
  SI: selectivity index (ratio CC50/IC50): >14.0
[1]; [4]
  IC50: 14.5 µM
[1]; [5]
  IC50: 7.94 µM
[1]; [6]
  IC50: 14.3 ± 1.9 µM
[3]
  CC50 at 48 h: > 200 µM

## C=CCc1cc(OC)c(OC)c(Oc2ccc(CCC)cc2OC)c1 [Compound 38]
[1]
  SI: selectivity index (ratio CC50/IC50): >17.1
[1]; [4]
  IC50: 11.7 µM
[2]
  IC50: 11.7 ± 7 µM
NCTC cells-clone L929
  CC50: > 200 µM

## C=CCc1ccc(Oc2cc(CC=C)cc(OC)c2O)cc1 [Compound 45]
[1]
  SI: selectivity index (ratio CC50/IC50): 5.5
[1]; [4]
  IC50: 22.4 µM
[2]
  IC50: 22.5 ± 18.8 µM
NCTC cells-clone L929
  CC50: 123 ± 9.8 µM

## C=CCc1cc(OC)cc(Oc2cc(CC=C)cc(OC)c2OS(=O)(=O)C(F)(F)F)c1 [Compound 33]
[1]; [4]
  IC50: > 30 µM
[1]; [5]
  IC50: 4.27 µM
[2]
  IC50: > 30 µM
NCTC cells-clone L929
  CC50: > 200 µM

## C=CCc1ccc(Oc2cc(CC=C)cc(OC)c2OCCCCC)c(OC)c1 [Compound 8]
[1]; [4]
  IC50: > 30 µM
[1]; [6]
  IC50: > 30 µM
[3]
  CC50 at 48 h: > 200 µM

## O=C(Cn1ccnc1[N+](=O)[O-])NCc1ccccc1 [Bzd, benznidazole, reference compound]
[1]
  SI: selectivity index (ratio CC50/IC50): 34.5
[1]; [4]
  IC50: 5.5 µM
[1]; [6]
  IC50: 5.5 ± 1.4 µM
[3]
  CC50 at 48 h: 190 ± 13.5 µM

## CCCc1ccc(Oc2cc(CCC)cc(OC)c2OC)c(OC)c1 [Compound 22]
[1]; [4]
  IC50: > 30 µM
[2]
  IC50: > 30 µM
NCTC cells-clone L929
  CC50: > 200 µM

## COc1cc(CC(C)O)ccc1Oc1cc(CC(C)O)cc(OC)c1OC (stereo not drawn) [Compound 31]
[1]
  SI: selectivity index (ratio CC50/IC50): >15.0
[1]; [4]
  IC50: 13.2 µM
[1]; [5]
  IC50: 28.2 µM
[2]
  IC50: 13.3 ± 3.6 µM
NCTC cells-clone L929
  CC50: > 200 µM

## C=CCc1ccc(Oc2cc(C(=O)C=C)cc(OC)c2OC(C)=O)c(OC)c1 [Compound 7, 4-Acetoxy-5-methoxy-3-[3′-methoxy-1′-(8′-propenyl)phenoxy]-1-(7-oxo-8-propenyl)benzene]
[1]; -log IC50 against amastigotes, Table 1 and Figure 7
  pIC50 Experimental: 5.38
[1]
  SI: selectivity index (ratio CC50/IC50): >47.6
[1]; [4]
  IC50: 4.27 µM
[1]; Trypanosoma cruzi, Macrophage, Table S1, test set, supplement numbering, read-out: Exp. pIC50 (converted)
  IC50: 9.55 µM
[1]; [6]
  IC50: 4.3 µM
[1]; read-out: IC50, 50% inhibitory concentration against amastigote forms of T. cruzi, intracellular amastigotes in BALB/c peritoneal macrophages, 48 h, 30 to […]
  IC50: 4.2 ± 1.1 µM
[3]
  CC50 at 48 h: > 200 µM

## COc1cc(CC2CO2)ccc1Oc1cc(CC2CO2)cc(OC)c1OC (stereo not drawn) [Compound 25]
[1]; [4]
  IC50: > 30 µM
[2]
  IC50: > 30 µM
NCTC cells-clone L929
  CC50: > 200 µM

## C=CCOc1c(OC)cccc1Oc1ccc(CC=C)cc1OC [Compound 49]
[1]; [4]
  IC50: > 30 µM
[2]
  IC50: > 30 µM
NCTC cells-clone L929
  CC50: > 200 µM

## C=CCc1cc(OC)cc(Oc2ccc(CC=C)cc2OC)c1 [Compound 34]
[1]
  SI: selectivity index (ratio CC50/IC50): >34.5
[1]; [4]
  IC50: 5.75 µM
[1]; [6]
  IC50: 5.8 ± 0.7 µM
[3]
  CC50 at 48 h: > 200 µM

## C=CCc1cc(OC)c(OCc2ccc(OC)cc2)c(Oc2ccc(CCC)cc2OC)c1 [Compound 40]
[1]
  SI: selectivity index (ratio CC50/IC50): >23.3
[1]; [4]
  IC50: 8.51 µM
[2]
  IC50: 8.6 ± 2.1 µM
NCTC cells-clone L929
  CC50: > 200 µM

## CCCOc1c(OC)cc(CCC)cc1Oc1ccc(CCC)cc1OC [Compound 18]
[1]; [4]
  IC50: > 30 µM
[1]; [5]
  IC50: 87.1 µM
[2]
  IC50: > 30 µM
NCTC cells-clone L929
  CC50: > 200 µM

## C=CCc1cc(OC)c(OCc2ccc(OC)cc2)c(Oc2ccccc2OC)c1 [Compound 48]
[1]; [4]
  IC50: > 30 µM
[2]
  IC50: > 30 µM
NCTC cells-clone L929
  CC50: > 200 µM
